One data set relates to U251-MG tumors. As to the kind of experiment: In situ end-labeling (TUNEL) of DNA in subcutaneous xenografts. As to conditions: 5 nmol every day for 7 days. In kind it is in vivo, nude mice. An excerpt:
FIG. 14. In situ end-labeling of DNA in subcutaneous xenografts of nude mice. After treatment with oligonucleotides (5 nmol, every day) for 7 days, the mice were sacrificed and the subcutaneous mass was removed, frozen, and sectioned on a cryostat. The tumor specimens from U251-MG cells were counterstained by hematoxylin and eosin following the TUNEL technique. Arrows show representatives of tumor cells positive for DNA fragmentation (×400). (above) spA4-anti-(M6)hTR, 7 Day; (below) spA4-anti-hTR, 7 Day.
To further determine whether treatment with oligonucleotides induced apoptosis, tumor cells and tissues were stained by the terminal deoxynucleotidyl transferase (TdT)-mediated DUTP nick end labeling (TUNEL) technique using Apo-Tag kit (peroxidase conjugated) (Oncor Inc., Gaithersburg, Md.). The staining of apoptotic cells was done on U373MG cells. Oligonucleotides with lipofectamine was added to the cells every day. The final concentrations were 0.5 micromolar and 8 microgram/ml for oligo and lipofectamine, respectively. […]
U251-MG and U373 MG tumor cells (1.0×10^6 cells in 0.1 ml serum free DMEM and 0.1 ml Matrigel) were injected subcutaneously into the right flank of 8-12 week-old female Balb/c nude mice (5 mice for each treatment group). Tumor growth was monitored using calipers every 2- or 3-days. Tumor volume (V) was calculated as (L×W^2)/2, where L=length (mm) and W=width (mm). […]

Data set [1] concerns intracranial U373-MG tumors. As to the kind of experiment: Survival of mice with intracranial malignant glioma, intracranial injection. In kind it is in vivo, Balb/c nude mice. The protocol: To establish murine models with intracranial tumors of U373-MG human malignant glioma cells, Balb/c nude mice were used. Mice (8-12 week-old male) were anesthetized using ketamine (90 mg/kg) and xylazine (10 mg/kg) and placed in a stereotaxic frame (Lab Standard w/18 Degree Earbars, Stoelting, Wood Dale, Ill.). Inoculation of 5×10^5 tumor cells (10 microliter of a tumor cell suspension of 5×10^7/ml in serum free DMEM [0.5 ml] and matrigel [0.5 ml]) was performed transcranially using a 27-gauge stainless-steel needle and microliter syringe (Perfectum, Popper & Sons, Inc., New Hyde Park, N.Y.). The needle insertion was in the skull 1 mm anterior and.2 mm lateral to the bregma and the depth of insertion was 4 mm from the skull (the caudate nucleus). The needle was left in place for 3 min and then withdrawn slowly over another minute. Two weeks after inoculation of tumor cells, mice were deeply anesthetized with ketamine/xylazine, and sacrificed by transcardiac perfusion with 4% formaldehyde. The brains were then sliced to include the injection site, and 12 μm sections were made for histological analysis. To determine the effect of 2-5A-anti-hTR on intracranial tumors, spA4-anti-hTR (3 nmol/10 microliter distilled water/3 microliter Lipofectamine, three times) was injected intracranially into the tumors via the same coordinates three weeks after inoculation of tumor cells (on Days 21, 23, and 25).

This is an account of results in patent publication US6468983B2, “RNase L activators and antisense oligonucleotides effective to treat telomerase-expressing malignancies” (The Cleveland Clinic Foundation, priority 1997, dated 2002).

As for “Sp5′A2′p(5′A2p)3-[(Bu)p]2-5′GCG CGG GGA GCA AAA GCA C3′-3′T5′ (antisense GCGCGGGGAGCAAAAGCAC; 5'-thiophosphate 2-5A tetramer, butanediol linkers, 3'-3'T cap, chemistry not fully specified) [spA4-anti-hTR, 2-5A tetramer linked by butanediol linkers to 19-mer antisense against human telomerase RNA nucleotides 76 to 94]”, the “apoptotic cells observed in tumors (TUNEL)” value in the data set on U251-MG tumors is “many apoptotic cells”. Besides, in data set [1] (9 weeks after inoculation of tumor cells, 3 nmol plus Lipofectamine intracranially on Days 21, 23, 25), the survival of mice is recorded as 50%. For the same substance, the mice survived in data set [1] (at 62 days post-tumor implantation) was 50%. Also, the “survival of mice (in words)” value in data set [1] (intracranial injection) is listed as “Enhanced survival”.
